Data taken from patent US11051515B2, “3-acyl-benzamides and their use as herbicides” (Bayer Aktiengesellschaft, priority 2017, dated 2021).

How the values were obtained:
AVEFA [1] = assay: Pre-emergence action against AVEFA; format: in vivo, Avena fatua; details: Avena fatua, 504 h, dosage 320 g/ha, scored visually after 3 weeks vs untreated controls, read-out: Pre-emergence action against AVEFA (herbicidal activity)
Method in brief: (§1)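 Seeds sown in sandy loam in wood-fiber pots and covered with soil. Greenhouse growth; visual damage scored after 3 weeks versus untreated controls (100% = dead, 0% = like control).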

SETVI [2] = assay: Pre-emergence action against SETVI; format: in vivo, Setaria viridis; details: for pest or weed control at 320 g/ha: Setaria viridis, 504 h, pre-emergence, dosage 320 g/ha, scored visually after 3 weeks vs untreated controls, read-out: SETVI (Table B8, pre-emergence herbicidal activity)
Method in brief: as §1

ABUTH [3] = assay: Pre-emergence action against ABUTH; format: in vivo, Abutilon theophrasti; details: for pest or weed control at 320 g/ha: Abutilon theophrasti, 504 h, pre-emergence, dosage 320 g/ha, scored visually after 3 weeks vs untreated controls, read-out: Pre-emergence action against ABUTH (herbicidal activity)
Method in brief: as §1

AMARE [4] = assay: Pre-emergence action against AMARE; format: in vivo, Amaranthus retroflexus; details: for pest or weed control at 320 g/ha: Amaranthus retroflexus, 504 h, pre-emergence, dosage 320 g/ha, scored visually after 3 weeks vs untreated controls, read-out: Pre-emergence action against AMARE (herbicidal activity)
Method in brief: as §1

MATIN [5] = assay: Pre-emergence action against MATIN; format: in vivo, Matricaria inodora; details: for pest or weed control at 320 g/ha: Tripleurospermum inodorum, 504 h, Dosage 320 g/ha, pre-emergence
Method in brief: as §1

PHBPU = assay: Pre-emergence action against PHBPU; format: in vivo, Pharbitis purpurea; details: Ipomoea purpurea, 504 h; Dosage 320 g/ha, pre-emergence
Method in brief: as §1

POLCO [6] = assay: Pre-emergence action against POLCO; format: in vivo, Polygonum convolvulus; details: Fallopia convolvulus, 504 h; Dosage 320 g/ha, pre-emergence
Method in brief: as §1

VIOTR [7] = assay: Pre-emergence action against VIOTR; format: in vivo, Viola tricolor; details: for pest or weed control at 320 g/ha: Viola tricolor, 504 h, Dosage 320 g/ha, pre-emergence
Method in brief: as §1

VERPE [8] = assay: Pre-emergence action against VERPE; format: in vivo, Veronica persica; details: for pest or weed control at 320 g/ha: Veronica persica, 504 h, Dosage 320 g/ha, pre-emergence
Method in brief: as §1

AVEFA [9] = assay: Post-emergence action against AVEFA; format: in vivo, Avena fatua; details: for pest or weed control at 80 g/ha: Avena fatua, 504 h, post-emergence, dosage 80 g/ha, visual assessment about 3 weeks after treatment vs untreated controls, read-out: Post-emergence action against AVEFA (herbicidal action in percent)
Method in brief: (§2)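 Post-emergence foliar spray on greenhouse plants at the one-leaf stage, using wettable-powder or emulsion-concentrate formulations in water (600 to […], plus 0.2% wetting agent). Damage scored by eye roughly 3 weeks later against untreated plants: 0% = like control, 100% = dead.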

CYPES = assay: Post-emergence action against CYPES; format: in vivo, Cyperus esculentus; details: for pest or weed control at 80 g/ha: Cyperus esculentus, 504 h, post-emergence, dosage 80 g/ha, visual assessment about 3 weeks after treatment vs untreated controls, read-out: Post-emergence action against CYPES (herbicidal action in percent)
Method in brief: as §2

ECHCG = assay: Post-emergence action against ECHCG; format: in vivo, Echinochloa crus-galli; details: Echinochloa crus-galli, 504 h; post-emergence, dosage 80 g/ha, visual assessment about 3 weeks after treatment vs untreated controls; read-out: Post-emergence action against ECHCG (herbicidal action in percent)
Method in brief: as §2

SETVI [10] = assay: Post-emergence action against SETVI; format: in vivo, Setaria viridis; details: for pest or weed control at 80 g/ha: Setaria viridis, 504 h, post-emergence, dosage 80 g/ha, visual assessment about 3 weeks after treatment vs untreated controls, read-out: Post-emergence action against SETVI (herbicidal action in percent)
Method in brief: as §2

ABUTH [11] = assay: Post-emergence action against ABUTH; format: in vivo, Abutilon theophrasti; details: Abutilon theophrasti, 504 h; post-emergence, dosage 80 g/ha, visual assessment about 3 weeks after treatment vs untreated controls; read-out: Post-emergence action against ABUTH (herbicidal action in percent)
Method in brief: as §2

AMARE [12] = assay: Post-emergence action against AMARE; format: in vivo, Amaranthus retroflexus; details: for pest or weed control at 80 g/ha: Amaranthus retroflexus, 504 h, post-emergence, dosage 80 g/ha, visual assessment about 3 weeks after treatment vs untreated controls, read-out: Post-emergence action against AMARE (herbicidal action in percent)
Method in brief: as §2

MATIN [13] = assay: Post-emergence action against MATIN; format: in vivo, Matricaria inodora; details: for pest or weed control at 80 g/ha: Tripleurospermum inodorum, 504 h, post-emergence, dosage 80 g/ha, visual assessment about 3 weeks after treatment vs untreated controls, read-out: Post-emergence action against MATIN (herbicidal action in percent)
Method in brief: as §2

VIOTR [14] = assay: Post-emergence action against VIOTR; format: in vivo, Viola tricolor; details: Viola tricolor, 504 h; post-emergence, dosage 80 g/ha
Method in brief: as §2

VERPE [15] = assay: Post-emergence action against VERPE; format: in vivo, Veronica persica; details: Veronica persica, 504 h, dosage 80 g/ha
Method in brief: as §2

POLCO [16] = assay: Post-emergence action against POLCO; format: in vivo, Polygonum convolvulus; details: Fallopia convolvulus, 504 h; post-emergence, dosage 80 g/ha
Method in brief: as §2

[17] = Table V2, pre-emergence, 20 g of a.i./ha
[18] = Table V3, pre-emergence, 80 g of a.i./ha
[19] = Table V15, post-emergence, 5 g of a.i./ha

Row | SMILES | pest or weed control at 320 g/ha (AVEFA [1]) | pest or weed control at 320 g/ha (SETVI [2]) | pest or weed control at 320 g/ha (ABUTH [3]) | pest or weed control at 320 g/ha (AMARE [4]) | pest or weed control at 320 g/ha (MATIN [5]) | pest or weed control at 320 g/ha (PHBPU) | pest or weed control at 320 g/ha (POLCO [6]) | pest or weed control at 320 g/ha (VIOTR [7]) | pest or weed control at 320 g/ha (VERPE [8]) | pest or weed control at 80 g/ha (AVEFA [9]) | pest or weed control at 80 g/ha (CYPES) | pest or weed control at 80 g/ha (ECHCG) | pest or weed control at 80 g/ha (SETVI [10]) | pest or weed control at 80 g/ha (ABUTH [11]) | pest or weed control at 80 g/ha (AMARE [12]) | pest or weed control at 80 g/ha (MATIN [13]) | pest or weed control at 80 g/ha (VIOTR [14]) | pest or weed control at 80 g/ha (VERPE [15]) | other results
1 | Cn1nnnc1NC(=O)c1ccc(S(C)(=O)=O)c(C(=O)C2CC2)c1Cl [1-129] | 100% | 100% | 100% | 100% | 100% | 100% | 80% | 100% | 100% | 100% | 80% | 90% | 100% | 90% | 100% | 90% | 100% | 100% | SETVI (SETVI [2]; [17]): 90; Herbicidal efficacy against ABUTH (ABUTH [3]; [18]): 100; AMARE (AMARE [4]; [17]): 90; Herbicidal efficacy against AMARE (AMARE [4]; [18]): 100; MATIN (MATIN [5]; [17]): 90; Herbicidal efficacy against MATIN (MATIN [5]; [18]): 100; Herbicidal efficacy against VIOTR (VIOTR [7]; [18]): 100; VERPE (VERPE [8]; [17]): 100; Herbicidal efficacy against AVEFA (AVEFA [9]; [19]): 60; Herbicidal efficacy against CYPES (CYPES; [19]): 60; Herbicidal efficacy against SETVI (SETVI [10]; [19]): 100; Herbicidal efficacy against AMARE (AMARE [12]; [19]): 100; Herbicidal efficacy against MATIN (MATIN [13]; [19]): 80
2 | CCC(=O)c1c(C(F)F)ccc(C(=O)Nc2nnnn2C)c1Cl [1-165] | 100% | 100% | 100% | 100% | 100% | 100% | 90% | 100% | 100% | 90% | – | 90% | 100% | 90% | 90% | 90% | 90% | 90% | pest or weed control at 80 g/ha (POLCO [16]): 100%
3 | CSc1c(C(=O)Nc2nnnn2C)ccc(C(F)(F)F)c1C(C)=O [1-58] | 100% | 100% | 100% | 100% | 100% | 100% | 100% | 100% | 100% | 100% | 90% | 100% | 100% | 100% | 100% | 100% | 100% | 100% | –
